Measurements as given in patent publication US11944626B2, “Small molecule inhibitors of ALDH and uses thereof” (The Regents of the University of Michigan, priority 2016, dated 2024).

Assays:
Experiment in all cases: Inhibition of ALDH isoenzymes (NAD(P)H formation at 340 nm, purified recombinant enzyme);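 for ALDH2 % Control at 20 μM: run at 25 °C, started by adding substrate after 2 min preincubation, with 100-200 nM ALDH2, 200 µM NAD+, 100 µM propionaldehyde, 1% DMSO in BES buffer pH 7.5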
Format in all cases: biochemical
[1] = molecular target: T1, ALDH1A2 (Homo sapiens, UniProt O94788); conditions: for remaining activity at 20 µM: compound at 20 μM, read-out: ALDH1A2 % Control at 20 μM; for IC50: 100-200 nM enzyme, 200 μM NAD+, 100 μM propionaldehyde, pH 7.5, 25° C.
T1 sequence (O94788 1-518): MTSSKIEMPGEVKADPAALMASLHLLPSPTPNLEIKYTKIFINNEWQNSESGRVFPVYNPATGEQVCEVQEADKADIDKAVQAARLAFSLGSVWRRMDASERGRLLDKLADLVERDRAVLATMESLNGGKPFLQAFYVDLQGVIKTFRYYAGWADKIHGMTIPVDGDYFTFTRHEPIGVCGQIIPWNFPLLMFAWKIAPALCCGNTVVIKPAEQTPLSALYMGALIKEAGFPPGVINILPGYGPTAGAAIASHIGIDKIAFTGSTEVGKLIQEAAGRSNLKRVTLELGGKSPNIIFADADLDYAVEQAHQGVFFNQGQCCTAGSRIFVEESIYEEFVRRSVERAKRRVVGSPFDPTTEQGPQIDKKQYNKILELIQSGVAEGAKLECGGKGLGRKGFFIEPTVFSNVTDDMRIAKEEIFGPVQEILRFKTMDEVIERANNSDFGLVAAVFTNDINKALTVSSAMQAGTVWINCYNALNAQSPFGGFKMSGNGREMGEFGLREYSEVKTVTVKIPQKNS

[2] = molecular target: T2, ALDH1A3 (Homo sapiens, UniProt P47895); conditions: for remaining activity at 20 µM: compound at 20 μM, read-out: ALDH1A3 % Control at 20 μM; for IC50: 100-200 nM enzyme, 200 μM NAD+, 100 μM propionaldehyde, pH 7.5, 25° C.
T2 sequence (P47895 1-512): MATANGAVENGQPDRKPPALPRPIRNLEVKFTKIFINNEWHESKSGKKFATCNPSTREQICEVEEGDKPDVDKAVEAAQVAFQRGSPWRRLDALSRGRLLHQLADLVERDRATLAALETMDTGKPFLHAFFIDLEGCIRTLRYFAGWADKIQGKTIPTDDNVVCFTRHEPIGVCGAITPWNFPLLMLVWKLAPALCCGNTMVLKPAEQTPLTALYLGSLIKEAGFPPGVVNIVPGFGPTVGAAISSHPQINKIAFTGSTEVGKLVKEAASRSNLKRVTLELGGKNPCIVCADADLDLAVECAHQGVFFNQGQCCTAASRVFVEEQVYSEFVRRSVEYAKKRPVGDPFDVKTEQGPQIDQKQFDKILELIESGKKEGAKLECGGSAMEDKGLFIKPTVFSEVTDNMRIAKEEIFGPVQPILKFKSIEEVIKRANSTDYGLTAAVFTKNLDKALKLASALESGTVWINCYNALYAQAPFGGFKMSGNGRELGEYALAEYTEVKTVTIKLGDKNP

[3] = molecular target: T3, ALDH1A1 (Homo sapiens, UniProt P00352); conditions: for IC50: 100-200 nM enzyme, 200 μM NAD+, 100 μM propionaldehyde, pH 7.5, 25° C.; for remaining activity at 20 µM: compound at 20 μM, read-out: ALDH1A1 % Control at 20 μM
T3 sequence (P00352 1-501): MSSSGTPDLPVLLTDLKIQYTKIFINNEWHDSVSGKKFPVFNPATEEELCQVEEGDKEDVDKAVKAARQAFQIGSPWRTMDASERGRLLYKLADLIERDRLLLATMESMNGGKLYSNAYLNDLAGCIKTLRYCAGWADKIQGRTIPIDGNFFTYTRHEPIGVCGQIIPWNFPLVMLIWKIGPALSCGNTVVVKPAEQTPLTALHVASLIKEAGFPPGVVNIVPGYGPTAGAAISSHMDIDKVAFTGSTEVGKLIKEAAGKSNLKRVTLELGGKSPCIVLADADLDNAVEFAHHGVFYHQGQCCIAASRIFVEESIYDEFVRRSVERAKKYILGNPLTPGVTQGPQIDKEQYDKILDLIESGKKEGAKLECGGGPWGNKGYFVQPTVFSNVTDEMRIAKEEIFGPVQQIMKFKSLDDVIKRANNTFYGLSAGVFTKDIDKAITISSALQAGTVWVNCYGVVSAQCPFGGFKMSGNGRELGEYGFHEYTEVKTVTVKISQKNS

[4] = molecular target: T4, ALDH2 (Homo sapiens, UniProt P05091); conditions: compound at 20 μM; read-out: ALDH2 % Control at 20 μM;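 note: run at 25 °C, started by adding substrate after 2 min preincubation, with 100-200 nM ALDH2, 200 µM NAD+, 100 µM propionaldehyde, 1% DMSO in BES buffer pH 7.5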
T4 sequence (P05091 18-517): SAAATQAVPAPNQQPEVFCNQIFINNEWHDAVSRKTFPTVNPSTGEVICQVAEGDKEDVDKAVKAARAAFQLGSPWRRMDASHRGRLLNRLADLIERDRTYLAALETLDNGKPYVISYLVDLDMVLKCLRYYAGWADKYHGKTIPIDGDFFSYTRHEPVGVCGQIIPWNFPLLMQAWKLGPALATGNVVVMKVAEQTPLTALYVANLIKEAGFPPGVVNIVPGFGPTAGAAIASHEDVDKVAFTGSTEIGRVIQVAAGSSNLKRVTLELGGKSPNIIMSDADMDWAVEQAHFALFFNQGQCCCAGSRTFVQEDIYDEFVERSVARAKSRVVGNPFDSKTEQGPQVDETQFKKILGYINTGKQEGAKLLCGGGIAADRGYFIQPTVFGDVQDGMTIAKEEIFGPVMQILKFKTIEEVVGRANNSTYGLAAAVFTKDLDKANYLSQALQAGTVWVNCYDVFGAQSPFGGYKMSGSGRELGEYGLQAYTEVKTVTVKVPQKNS

Cc1ccccc1-n1c(SCc2cccc(F)c2)nc2n[nH]c(C)c2c1=O [Example 39, 6-((3-fluorobenzyl)thio)-3-methyl-5-(o-tolyl)-2H-pyrazolo[3,4-d]pyrimidin-4(5H)-one]
remaining activity at 20 µM [1]: 93%
remaining activity at 20 µM [2]: 79%
IC50 [3]: 1200 nM
remaining activity at 20 µM [4]: 95%

Cn1ncc2c(=O)n(-c3ccccc3)c(SC3CCCCC3)nc21 [Example 72, 6-(cyclohexylthio)-1-methyl-5-phenyl-1H-pyrazolo[3,4-d]pyrimidin-4(5H)-one]
remaining activity at 20 µM [1]: 34%
remaining activity at 20 µM [2]: 24%
remaining activity at 20 µM [3]: 26%
remaining activity at 20 µM [4]: 96%

Cn1ncc2c(=O)n(-c3ccccc3)c(SC3CCCC3=O)nc21 (stereo not shown) [Example 75, 1-methyl-6-((2-oxocyclopentyl)thio)-5-phenyl-1H-pyrazolo[3,4-d]pyrimidin-4(5H)-one]
remaining activity at 20 µM [1]: 46%
remaining activity at 20 µM [2]: 64%
remaining activity at 20 µM [3]: 23%
remaining activity at 20 µM [4]: 95%

CCn1ncc2c(=O)n(-c3ccccc3C)c(SCc3cccc(F)c3)nc21 [Example 5, 1-ethyl-6-((3-fluorobenzyl)thio)-5-(o-tolyl)-1H-pyrazolo[3,4-d]pyrimidin-4(5H)-one]
IC50 [1]: 15000 nM
IC50 [2]: > 10000 nM
IC50 [3]: 350 nM
remaining activity at 20 µM [4]: 93%

Cn1ncc2c(=O)n(-c3ccccc3)c(SCc3cccc(C#N)c3)nc21 [Example 53, 3-(((1-methyl-4-oxo-5-phenyl-4,5-dihydro-1H-pyrazolo[3,4-d]pyrimidin-6-yl)thio)methyl)benzonitrile]
remaining activity at 20 µM [1]: 30%
remaining activity at 20 µM [2]: 32%
remaining activity at 20 µM [3]: 24%
remaining activity at 20 µM [4]: 95%

Cn1ncc2c(=O)n(-c3ccccc3)c(COCc3cccc(F)c3)nc21 [Example 50, 6-(((3-fluorobenzyl)oxy)methyl)-1-methyl-5-phenyl-1H-pyrazolo[3,4-d]pyrimidin-4(5H)-one]
remaining activity at 20 µM [1]: 52%
remaining activity at 20 µM [2]: 37%
remaining activity at 20 µM [3]: 15%
remaining activity at 20 µM [4]: 101%

COc1cccc(CSc2nc3c(cnn3C)c(=O)n2-c2ccccc2)c1 [Example 54, 6-((3-methoxybenzyl)thio)-1-methyl-5-phenyl-1H-pyrazolo[3,4-d]pyrimidin-4(5H)-one]
IC50 [1]: 265 nM
IC50 [2]: 207 nM
IC50 [3]: 281 nM
remaining activity at 20 µM [4]: 88%

Cc1ccccc1-n1c(NCc2cccc(F)c2)nc2[nH]ncc2c1=O [Example 22, 6-((3-fluorobenzyl)amino)-5-(o-tolyl)-1H-pyrazolo[3,4-d]pyrimidin-4(5H)-one]
remaining activity at 20 µM [1]: 96%
remaining activity at 20 µM [2]: 90%
remaining activity at 20 µM [3]: 61%
remaining activity at 20 µM [4]: 96%

Cn1ncc2c(=O)n(-c3ccccc3)c(SC(C)(C)c3ccccc3)nc21 [Example 77, 1-methyl-5-phenyl-6-((2-phenylpropan-2-yl)thio)-1H-pyrazolo[3,4-d]pyrimidin-4(5H)-one]
remaining activity at 20 µM [1]: 23%
remaining activity at 20 µM [2]: 17%
remaining activity at 20 µM [3]: 22%
remaining activity at 20 µM [4]: 102%

Cc1ccccc1-n1c(SCc2cccc(F)c2)nc2[nH]ncc2c1=O [Example 1, 6-((3-fluorobenzyl)thio)-5-(o-tolyl)-1H-pyrazolo[3,4-d]pyrimidin-4(5H)-one]
IC50 [1]: 4700 nM
IC50 [2]: > 20000 nM

Cc1ccccc1-n1c(OCc2cccc(F)c2)nc2c(cnn2C)c1=O [Example 24, 6-((3-fluorobenzyl)oxy)-1-methyl-5-(o-tolyl)-1H-pyrazolo[3,4-d]pyrimidin-4(5H)-one]
remaining activity at 20 µM [1]: 72%
remaining activity at 20 µM [2]: 66%
IC50 [3]: 1200 nM
remaining activity at 20 µM [4]: 95%

Cn1ncc2c(=O)n(C3CCCC3)c(SCc3cccc(F)c3)nc21 [Example 45, 5-cyclopentyl-6-((3-fluorobenzyl)thio)-1-methyl-1H-pyrazolo[3,4-d]pyrimidin-4(5H)-one]
remaining activity at 20 µM [1]: 37%
remaining activity at 20 µM [2]: 95%
remaining activity at 20 µM [3]: 46%
remaining activity at 20 µM [4]: 117%

O=c1c2cnn(C3COC3)c2nc(SCc2cccc(F)c2)n1-c1ccccc1 [Example 18, 6-((3-fluorobenzyl)thio)-1-(oxetan-3-yl)-5-phenyl-H-pyrazolo[3,4-d]pyrimidin-4(5H)-one]
remaining activity at 20 µM [1]: 7%
remaining activity at 20 µM [2]: 9%
remaining activity at 20 µM [3]: 2%

Cn1ncc2c(=O)n(-c3ccccc3)c(SC3CCCCC3=O)nc21 (stereo not shown) [Example 76, 1-methyl-6-((2-oxocyclohexyl)thio)-5-phenyl-1H-pyrazolo[3,4-d]pyrimidin-4(5H)-one]
remaining activity at 20 µM [1]: 25%
remaining activity at 20 µM [2]: 14%
remaining activity at 20 µM [3]: 16%
remaining activity at 20 µM [4]: 94%

Cn1ncc2c(=O)n(-c3ccccc3)c(COc3cccc(F)c3)nc21 [Example 25, 6-((3-fluorophenoxy)methyl)-1-methyl-5-phenyl-1H-pyrazolo[3,4-d]pyrimidin-4(5H)-one]
remaining activity at 20 µM [1]: 65%
remaining activity at 20 µM [2]: 83%
remaining activity at 20 µM [3]: 24%
remaining activity at 20 µM [4]: 101%

CC(Sc1nc2c(cnn2C)c(=O)n1-c1ccccc1)c1ccccn1 (stereo not shown) [Example 79, 1-methyl-5-phenyl-6-((1-(pyridin-2-yl)ethyl)thio)-1H-pyrazolo[3,4-d]pyrimidin-4(5H)-one]
remaining activity at 20 µM [1]: 1%
remaining activity at 20 µM [3]: 9%
remaining activity at 20 µM [4]: 92%

Cn1ncc2c(=O)n(-c3ccccc3F)c(SCc3cccc(F)c3)nc21 [Example 56, 6-((3-fluorobenzyl)thio)-5-(2-fluorophenyl)-1-methyl-1H-pyrazolo[3,4-d]pyrimidin-4(5H)-one]
remaining activity at 20 µM [2]: 9%

Cn1ncc2c(=O)n(-c3ccccc3)c(CCc3cccc(F)c3)nc21 [Example 48, 6-(3-fluorophenethyl)-1-methyl-5-phenyl-1H-pyrazolo[3,4-d]pyrimidin-4(5H)-one]
remaining activity at 20 µM [2]: 26%
remaining activity at 20 µM [3]: 24%
remaining activity at 20 µM [4]: 98%

Cn1ncc2c(=O)n(-c3ccccc3)c(/C=C/c3cccc(F)c3)nc21 [Example 47, (E)-6-(3-fluorostyryl)-1-methyl-5-phenyl-1H-pyrazolo[3,4-d]pyrimidin-4(5H)-one]
remaining activity at 20 µM [1]: 15%
remaining activity at 20 µM [3]: 28%
remaining activity at 20 µM [4]: 110%
